Values of other authors as cited in patent US6395296B1, “Soluble double metal salt of group IA and IIA of hydroxycitric acid, process of preparing the same and its use in beverages and other food products without effecting their flavor and properties” (priority 1997, dated 2002).

What was measured:
[1] = test system: ATP dependent citrate-lyase; conditions: key enzyme in diverting carbohydrate to fatty acids and cholesterol synthesis; Sullivan et al., Sergio
[2] = test system: conversion of excess carbohydrates to fat; conditions: in animals; established by several scientists including at Hoffman-La Roche

inhibition of ATP dependent citrate-lyase [1]: inhibit
SMILES: O=C(O)CC(O)(C(=O)O)C(O)C(=O)O (single isomer, unassigned; (-)) [HCA, (−) Hydroxycitric acid]
conversion of excess carbohydrates to fat [2]: prevents the conversion of excess carbohydrates to fat
